Where a SMILES comes first, the peptide text is derived from it. Bridges are numbered along the chain shown (N, C = ends).

The values below come from patent US5306808A, “Peptide derivatives having vasodilating activity” (Takeda Chemical Industries, Ltd., priority 1991, dated 1994).

One experiment concerns endothelin receptor. The experiment can be described thus: Assay of affinity for receptor (I125-ET-1 binding to porcine myocardial membrane fraction). The following applies: ET-1 = 100.
Another experiment concerns porcine coronary artery. It is filed as cell-based. The following applies: for Constrictor activity (Relative potency): ET-1 = 100; for Maximum Constriction (% 60 mM KCl): normalized to constriction response to 60 mM KCl.
The test system of experiment [1] is porcine coronary smooth muscles (constriction due to endothelin-1). The experiment can be described thus: Assay of constriction suppressing activity to porcine coronary smooth muscles. The following applies: Sample: constriction due to 10^-9 M ET-1 in the presence of 10^-5 sample; Control: constriction due to 10^-9 M ET-1; formula shown only as drawing 9. It is filed as cell-based. As to the method:
Its tension was detected by a force displacement transducer UL-10GR (Minebea), and recorded by a polygraph (NEC Sanei). […] A tension of 1.25 to 1.5 g was applied to each of the strips, followed by equilibration for 1.5 hours. 60 mM KCl was repeatedly applied thereto at intervals of 30 minutes until the constriction response became constant. After additional equilibration for 1.5 hours, a sample for assay was given. The constriction of the strips was normalized by the constriction response of the individual strips to 60 mM KCl and statistically processed.

In the case of `CC[C@H](C)[C@H](NC(=O)[C@H](CC(=O)O)NC(=O)[C@H](CC(C)C)NC(=O)[C@H](Cc1c[nH]cn1)NC(=O)[C@@H]1CSSC[C@H](N)C(=O)N[C@@H](CO)C(=O)N[C@@H](Cc2ccccc2)C(=O)N[C@@H](CO)C(=O)N[C@@H](CO)C(=O)N[C@@H](CC(C)C)C(=O)N[C@@H](CCSC)C(=O)N[C@@H](CC(=O)O)C(=O)N[C@@H](CCCCN)C(=O)N[C@@H](CCC(=O)O)C(=O)N[C@@H](C)C(=O)N[C@@H](C(C)C)C(=O)N[C@@H](Cc2ccc(O)cc2)C(=O)N[C@@H](Cc2ccccc2)C(=O)N1)C(=O)N[C@H](C(=O)N[C@@H](Cc1c[nH]c2ccccc12)C(=O)O)[C@@H](C)CC` [Example 2, [Phe^3, Ala^11]-ET-1] (H-CSFSSLMDKEAVYFCHLDIIW-OH; disulfide 1-15), the “Receptor binding activity (Relative potency)” value with endothelin receptor is 0.5. In the experiment on porcine coronary artery, the “Constrictor activity (Relative potency)” value is recorded as below 0.1 and the “Maximum Constriction (% 60 mM KCl)” value worked out at 10 % 60 mM KCl. Further, the “Suppressing activity to ET-1” value in experiment [1] came to 87.
Taken in the same sequence, the figures for `CC[C@H](C)[C@H](NC(=O)[C@H](CC(=O)O)NC(=O)[C@H](CC(C)C)NC(=O)[C@H](Cc1c[nH]cn1)NC(=O)[C@@H]1CSSC[C@H](N)C(=O)N[C@@H](CO)C(=O)N[C@@H](Cc2ccccc2)C(=O)N[C@@H](CO)C(=O)N[C@@H](CO)C(=O)N[C@@H](CC(C)C)C(=O)N[C@@H](CCSC)C(=O)N[C@@H](CC(=O)O)C(=O)N[C@@H](CCCCN)C(=O)N[C@@H](CCC(=O)O)C(=O)N[C@@H](Cc2ccccc2)C(=O)N[C@@H](C(C)C)C(=O)N[C@@H](Cc2ccc(O)cc2)C(=O)N[C@@H](Cc2ccccc2)C(=O)N1)C(=O)N[C@H](C(=O)N[C@@H](Cc1c[nH]c2ccccc12)C(=O)O)[C@@H](C)CC` [Example 1, [Phe^3,11]-ET-1] (H-CSFSSLMDKEFVYFCHLDIIW-OH; disulfide 1-15) were 0.45, below 0.3, 9 % 60 mM KCl and 77.
For `CC[C@H](C)[C@H](NC(=O)[C@H](CC(=O)O)NC(=O)[C@H](CC(C)C)NC(=O)[C@H](Cc1c[nH]cn1)NC(=O)[C@@H]1CSSC[C@H](N)C(=O)N[C@@H](CO)C(=O)N[C@@H](C)C(=O)N[C@@H](CO)C(=O)N[C@@H](CO)C(=O)N[C@@H](CC(C)C)C(=O)N[C@@H](CCSC)C(=O)N[C@@H](CC(=O)O)C(=O)N[C@@H](CCCCN)C(=O)N[C@@H](CCC(=O)O)C(=O)N[C@@H](Cc2ccccc2)C(=O)N[C@@H](C(C)C)C(=O)N[C@@H](Cc2ccc(O)cc2)C(=O)N[C@@H](Cc2ccccc2)C(=O)N1)C(=O)N[C@H](C(=O)N[C@@H](Cc1c[nH]c2ccccc12)C(=O)O)[C@@H](C)CC` [Example 3, [Ala^3, Phe^11]-ET-1] (H-CSASSLMDKEFVYFCHLDIIW-OH; disulfide 1-15) the same measures were 0.1, below 0.1, 10 % 60 mM KCl and 56.
